The subject of data set [1] is HCT-8 cells. The data set is described as follows: Cytotoxicity assay (MTT, 72 h). Type of data set: cell-based, human. Particulars: for Fold Resistance / IC50: HCT-8, chemotherapeutic drug alone; for Fold Resistance: relative to IC50 of HCT-8 without inhibitors. As to the method:
(§1) Cells were seeded into 96-well plates at a concentration of 5 × 10^3 cells per well. Following cell attachment, the respective agents were added for a 72-h incubation period. Upon treatment completion, 500 μg/mL MTTwas added and the plates were incubated for 4 h. Subsequently, the supernatant was carefully aspirated, and 50 μL DMSO was added. Absorbance at 570 nm was measured via BioTek Synergy H1 plate reader (Agilent Technologies, Santa Clara, CA, USA). IC50 values were calculated with GraphPad Prism 8.0.

Data set [2] concerns HCT-8/V cells. The experiment in a line: Cytotoxicity assay (MTT, 72 h). Type of data set: cell-based, human. The following applies: for IC50 / Fold Resistance: chemotherapeutic drug alone; for Fold Resistance: relative to IC50 of HCT-8 without inhibitors. As to the method:
All cell lines were grown in Dulbecco’s modified Eagle’s medium supplemented with 10% CellMax fetal bovine serum (#SA301.02.V) from Lanzhou Minhai Bio-Engineering Co. (Lanzhou, China) and maintained in a humidified incubator at 37 °C with 5% CO2.
as §1

The subject of data set [3] is ABCB1. The experiment in a line: Western blot of ABCB1 expression in HCT-8/V cells. Format: cell-based, human. Particulars: 10 μM and 30 μM H89 for 0.5, 3 and 72 h. (In general: Immunoblotting shows a protein as a band on a membrane.)
Protocol: Cells were placed in pre-cooled lysis buffer (containing 0.1% sodium dodecyl sulfate, 0.5% sodium deoxycholate, 1% Nonidet P-40, 10 ng/mL phenylmethanesulfonyl fluoride and 0.03% aprotinin) and lysed on ice for 30 min. After centrifugation (14,000× g, 10 min), the clear supernatant was collected. Proteins were separated by 10% sodium dodecyl sulfatepolyacrylamidegel electrophoresis and subsequently transferred to polyvinylidene difluoride membranes. The membranes were blocked with 5% BSA at room temperature for 1 h, followed by sequential incubation with primary antibodies specific to the target protein and horseradish peroxidase-conjugated secondary antibodies. Ultimately, signal detection was conducted via chemiluminescence using a gel imaging system from Bio-Rad Laboratories.
Data set [4] concerns the target T1, ABCB1 (Homo sapiens, UniProt P08183).
T1 construct: purchased Promega Corporation V3601
The experiment in a line: ABCB1 ATPase activity assay. Type of data set: biochemical. Particulars: 5 mM Mg2+-ATP, 37 °C, 40 min, luminescence; read-out: IC50 of inhibition of the ATPase activity of ABCB1. As to the method:
The detection was performed using anABCB1 ATPase Activity Assay Kit (#V3601, Promega Corporation, Madison, WI, USA). […] Subsequently, 5 mM Mg^2+-ATP was introduced to initiate the ATPase activity reaction. […] Finally, the emitted light was measured with a multi-functional microplate reader manufactured by Gene Company Limited (Chai Wan, Hong Kong).

For data set [5], the system named is HCT-8/V cells. The experiment in a line: Drug accumulation assay (flow cytometry). Format: cell-based, human. As to the method: (§2) Fluorescence imaging was performed using an Olympus CKX53 microscope (Tokyo, Japan) to assess the intracellular accumulation of the substrate drugs. Subsequently, cells were harvested, and fluorescent quantitative analysis was conducted using a Beckman CytoFLEX flow cytometer. The data were processed via FlowJo v10.8 software.

Data set [6] relates to HCT-8 cells. The data set is described as follows: Drug accumulation assay (flow cytometry). Format: cell-based, human. The following applies: HCT-8 parental cells. As to the method:
as §2

In general, IC50 refers to the midpoint of a concentration-inhibition curve.

Where only a bound is given, the exact number is not on record here.

T1 sequence (P08183 whole entry): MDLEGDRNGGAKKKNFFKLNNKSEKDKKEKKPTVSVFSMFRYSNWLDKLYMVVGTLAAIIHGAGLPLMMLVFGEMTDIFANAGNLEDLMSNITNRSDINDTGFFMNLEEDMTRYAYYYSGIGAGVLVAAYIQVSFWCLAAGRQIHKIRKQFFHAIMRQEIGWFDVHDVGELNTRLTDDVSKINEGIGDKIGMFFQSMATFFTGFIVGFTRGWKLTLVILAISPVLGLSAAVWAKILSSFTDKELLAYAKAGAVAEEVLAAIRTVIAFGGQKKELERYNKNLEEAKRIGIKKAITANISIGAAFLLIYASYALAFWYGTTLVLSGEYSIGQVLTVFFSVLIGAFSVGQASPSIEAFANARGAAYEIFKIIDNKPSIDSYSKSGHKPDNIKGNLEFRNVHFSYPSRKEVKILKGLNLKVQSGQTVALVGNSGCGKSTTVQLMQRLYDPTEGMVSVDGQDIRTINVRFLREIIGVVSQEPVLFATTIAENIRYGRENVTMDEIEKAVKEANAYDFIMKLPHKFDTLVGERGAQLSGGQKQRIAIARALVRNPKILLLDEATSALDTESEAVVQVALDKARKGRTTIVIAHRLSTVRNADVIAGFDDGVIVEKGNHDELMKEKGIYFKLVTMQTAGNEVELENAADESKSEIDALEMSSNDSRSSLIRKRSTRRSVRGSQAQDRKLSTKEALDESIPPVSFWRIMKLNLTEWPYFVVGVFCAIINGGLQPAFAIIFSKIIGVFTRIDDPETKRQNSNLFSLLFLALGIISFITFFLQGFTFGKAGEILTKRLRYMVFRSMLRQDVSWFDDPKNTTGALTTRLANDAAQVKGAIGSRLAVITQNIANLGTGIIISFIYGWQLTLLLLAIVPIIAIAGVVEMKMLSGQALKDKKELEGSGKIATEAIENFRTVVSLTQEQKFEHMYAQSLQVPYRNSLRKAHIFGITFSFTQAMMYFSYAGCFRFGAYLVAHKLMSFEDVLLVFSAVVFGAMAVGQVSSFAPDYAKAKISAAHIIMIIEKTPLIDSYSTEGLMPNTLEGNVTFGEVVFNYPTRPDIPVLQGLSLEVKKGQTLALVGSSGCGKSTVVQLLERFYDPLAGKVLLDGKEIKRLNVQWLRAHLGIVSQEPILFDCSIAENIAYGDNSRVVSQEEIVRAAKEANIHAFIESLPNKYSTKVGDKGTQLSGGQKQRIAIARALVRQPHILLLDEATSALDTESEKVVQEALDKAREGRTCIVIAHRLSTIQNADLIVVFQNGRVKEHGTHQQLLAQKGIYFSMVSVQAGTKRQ

Take `COc1cccc2c1C(=O)c1c(O)c3c(c(O)c1C2=O)C[C@@](O)(C(=O)CO)C[C@@H]3O[C@H]1C[C@H](N)[C@H](O)[C@H](C)O1` [Doxorubicin, doxorubicin]: the “Fold Resistance” value in the data set with HCT-8 cells [1] was determined as 1.0 fold; in the data set with HCT-8/V cells [2], 19.94 fold. Further, the IC50 is 0.35 ± 0.081 µM with HCT-8 cells [1] (Homo sapiens, 72 h MTT) and 6.98 ± 0.444 µM in the data set with HCT-8/V cells [2] (Homo sapiens, 72 h MTT).
In the case of `O=S(=O)(NCCNCC=Cc1ccc(Br)cc1)c1cccc2cnccc12` [H89, N-[2-(p-bromocinnamylamino)ethyl]-5-isoquinolinesulfonamide], the “ABCB1 protein level relative to β-tubulin” value in the data set with ABCB1 [3] is listed as “did not alter ABCB1 protein level”. In addition, the IC50 at ABCB1 [4] came out at 0.246 µM. Besides, the “Fold Resistance to Doxorubicin in combination” value is 1.06 fold in the data set with HCT-8 cells [1] (HCT-8, Doxorubicin + 3 μM of the labelled inhibitor); 1.05 fold in the data set with HCT-8 cells [1] (HCT-8, Doxorubicin + 10 μM of the labelled inhibitor); 4.53 fold with HCT-8/V cells [2] (Doxorubicin + 3 μM of the labelled inhibitor); 1.85 fold with HCT-8/V cells [2] (Doxorubicin + 10 μM of the labelled inhibitor). Also, the “Fold Resistance to Oxaliplatin in combination” value in the data set on HCT-8 cells [1] (HCT-8, Oxaliplatin + 3 μM of the labelled inhibitor) is recorded as 0.96 fold; with HCT-8 cells [1] (HCT-8, Oxaliplatin + 10 μM of the labelled inhibitor) it was 0.91 fold; in the data set with HCT-8/V cells [2] (Oxaliplatin + 3 μM of the labelled inhibitor), 0.89 fold; with HCT-8/V cells [2] (Oxaliplatin + 10 μM of the labelled inhibitor), 0.79 fold. For the same compound, the “Fold Resistance to Vincristine in combination” value was determined as 0.96 fold in the data set with HCT-8 cells [1] (HCT-8, Vincristine + 3 μM of the labelled inhibitor); 0.88 fold in the data set with HCT-8 cells [1] (HCT-8, Vincristine + 10 μM of the labelled inhibitor); 5.60 fold in the data set on HCT-8/V cells [2] (Vincristine + 3 μM of the labelled inhibitor); 1.88 fold in the data set on HCT-8/V cells [2] (Vincristine + 10 μM of the labelled inhibitor). The “Cytotoxicity of H89 alone” value in the data set with HCT-8 cells [1] (HCT-8, at concentrations below 30 μM, 72 h MTT) is recorded as “low cytotoxicity”; in the data set with HCT-8/V cells [2] (at concentrations below 30 μM, 72 h MTT), “low cytotoxicity”. The “Intracellular accumulation of substrate drugs compared with verapamil” value in the data set with HCT-8/V cells [5] (10 μM H89 vs 10 μM verapamil) is “achieved or even exceeded the inhibitory effect of verapamil”. Further, in the data set on HCT-8/V cells [5] (30 μM H89), the “Intracellular rhodamine 123 levels” value was “comparable to that in HCT-8 cells”. The “Intracellular accumulation of doxorubicin and rhodamine 123” value is “elevated doxorubicin and rhodamine 123 levels in HCT-8/V cells dose-dependently” with HCT-8/V cells [5] (1 h pretreatment, then 10 μM doxorubicin or rhodamine 123 for 2 h); “not observed” in the data set on HCT-8 cells [6].
Consider `O=C1[O][Pt]2([NH][C@@H]3CCCC[C@H]3[NH]2)[O]C1=O` [Oxaliplatin, oxaliplatin], for which the results for the concentration for half-maximal inhibition (IC50) in the data set on HCT-8 cells [1] (72 h MTT) and in the data set with HCT-8/V cells [2] (72 h MTT) were 9.3 ± 0.549 µM and 10.1 ± 0.09 µM, respectively. Moreover, the “Fold Resistance” value turned out to be 1.0 fold in the data set on HCT-8 cells [1] and 1.08 fold in the data set with HCT-8/V cells [2].
As for `CC[C@]1(O)C[C@H]2CN(CCc3c([nH]c4ccccc34)[C@@](C(=O)OC)(c3cc4c(cc3OC)N(C=O)[C@H]3[C@@](O)(C(=O)OC)[C@H](OC(C)=O)[C@]5(CC)C=CCN6CC[C@]43[C@@H]65)C2)C1` [Vincristine, vincristine], the IC50 in the data set on HCT-8 cells [1] (Homo sapiens, 72 h MTT) is 0.025 ± 0.002 µM; in the data set with HCT-8/V cells [2] (Homo sapiens, 72 h MTT) it was over 30 µM.

The values are drawn from PMC12730863 (Biomedicines, 2025).
